The record followed here is article PMC12505902, “Inhibitors of trehalose-6-phosphate synthase activity in fungal pathogens compromise thermal tolerance pathways” (mBio, 2025).

Assay type in all cases: cell-based
In assay [1] the test system is C. auris. Put plainly: Fungicidal spot assay on compound-free YPD plates. The note with it: 30°C and 39°C exposure. The protocol:
(§1) We tested the effects of 4456dh on live cells by determining the minimal inhibitory concentration causing 80% growth reduction (MIC80). Wild-type (WT) C. albicans and C. auris cells were incubated with 4456dh in yeast-peptone-dextrose (YPD) medium at 42°C and 39°C, respectively (Fig. 4A). […] 4456dh inhibited the growth of C. auris with an MIC80 of 7 mM at 39°C (Fig. 4A). The MIC80 increased at 30°C to greater than 13 mM (Fig. S7A).
(§2) Fig 4 4456dh inhibits the growth of Candida and Cryptococcus species. Two-fold dose response assays were performed against (A) C. albicans at 42°C and C. auris at 39°C, (B) C. glabrata at 42°C, and (C) C. neoformans, C. deneoformans, and C. gattii at 37°C. 4456dh was administered at the concentrations indicated. […] Left: relative growth of treated samples was calculated by averaging technical triplicates and normalizing the OD600 of each treated well to the average OD600 of the untreated WT controls, after the absorbance due to the compound was subtracted. The MIC80 values, calculated based on the OD600 values, are indicated in the white text on each heat map. […]
(§3) 124 technical replicates. Growth, as determined by a reading of absorbance at 600 nm, was
(§4) 125 normalized to untreated controls and was corrected for the absorbance of 4456dh in the YPD […]
(§5) 129 overnight cultures was quantified by measuring the OD600 and corrected for the background
(§6) 130 absorbance of the medium. […]

The test system of assay [2] is C. albicans. The assay is described as follows: Fungicidal spot assay on compound-free YPD plates. The note with it: 42°C exposure, then compound-free YPD plates. Here is the method: as §1, §2, §3, §4, §5, §6
In assay [3] the test system is trehalose content of C. neoformans. The assay is described as follows: Trehalose measurement (colorimetric glucose assay after trehalase). The note with it: 37°C, sublethal dose (0.5 mM 4456dh), P < 0.05; dose-dependent. Here is the method: Fig 5 4456dh treatment results in reduced trehalose accumulation and a decrease in Tps1-dependent virulence factors. Trehalose accumulation measurements for C. albicans (A) and C. neoformans (B) cultured at indicated temperatures in the absence or presence of 0.5 mM 4456dh. Trehalose was measured using a colorimetric glucose assay after treatment of cultures with trehalase. Statistical comparisons were done with a one-way analysis of variance (ANOVA) analysis followed by a post hoc Tukey’s test. Error bars represent SE. (C) C. albicans WT strain SC5314 cells were treated with 0.5 mM, 1.0 mM, and 5 mM 4456dh. […] Cells were harvested, stained in India Ink, and analyzed using differential interference contrast imaging. […]
as §3, §4, §5
130 absorbance of the medium. Antifungal potency for 4456dh was assessed by minimum inhibitory […]
137 replicates. Growth, as determined by a reading of absorbance at 600 nm, was normalized to
138 untreated controls and was corrected for the absorbance of 4456dh in the YPD medium. […]
139 minimum inhibitory concentration causing 80% growth reduction, or MIC80, was determined based […]

For the molecule `Cn1cc(-c2csc(NC(=O)Cc3ccccn3)n2)cn1` [Compound 4456dh], the fungicidal activity entry in assay [1] is “fungicidal activity of 4456dh on C. auris was also detected”; in assay [2], “temperature-dependent fungicidal activity”. In addition, the change in trehalose result in assay [3] is given as “significant decrease in trehalose”.
